These results are taken from PubChem BioAssay (NCI).

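Grown in 96-well plates, cells were treated for 48 hours with each compound at five concentrations. Insufficient inhibition: endpoint recorded as highest concentration tested. Abbreviation: GI50, concentration required for 50% inhibition of growth. TGI denotes the concentration required for complete inhibition of growth.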 Where only a bound is given, the exact number is not on record here.

Test systems include DU-145 prostate; HS 578T breast; K-562 leukemia; MDA-MB-435; NCI-H226 lung; NCI/ADR-RES ovarian; OVCAR-3 ovarian; SN12C renal; SNB-19 CNS; U251 CNS.
What all share (assay): growth of human tumour cells (NCI), 48 h

As to `C/C=C/C=C\C1OC(O)([C@H](CC)C(=O)NC/C=C/C=C(\C)[C@H](OC)C(C)C2OC(\C=C/C=C/C=C(\C)C(=O)c3c(O)ccn(C)c3=O)[C@H](O)[C@@H]2O)C(O)C(O)C1(C)C` (some centres not stated), the TGI in the experiment on DU-145 prostate, in the experiment on HS 578T breast, in the experiment with K-562 leukemia, in the experiment with MDA-MB-435, in the experiment with NCI-H226 lung and in the experiment on NCI/ADR-RES ovarian was more than 100 µM throughout. Besides, the TGI in the experiment with OVCAR-3 ovarian, with SN12C renal, in the experiment on SNB-19 CNS and in the experiment with U251 CNS was more than 100 µM each time.
For the molecule `COc1cccc2c(=O)c3c(sc12)c(NCCN(C)C)nc1ccccc13`, the GI50 in the experiment on DU-145 prostate was 1.68 µM; in the experiment on HS 578T breast, 1.69 µM; in the experiment on K-562 leukemia, 1.02 µM; in the experiment on MDA-MB-435 it was 1.71 µM; in the experiment with NCI-H226 lung, 1.75 µM; in the experiment on NCI/ADR-RES ovarian, 1.31 µM. The figures for the GI50 in the experiment on OVCAR-3 ovarian, in the experiment on SN12C renal and in the experiment on U251 CNS were 1.61 µM, 1.15 µM and 1.29 µM, respectively. The TGI in the experiment with DU-145 prostate came to 3.17 µM; in the experiment on HS 578T breast, 4.81 µM; with K-562 leukemia, 2.8 µM; in the experiment with MDA-MB-435, 3.2 µM; with NCI-H226 lung it was 4.03 µM; in the experiment on NCI/ADR-RES ovarian, 3.03 µM. Moreover, the TGI in the experiment with OVCAR-3 ovarian came to 3.22 µM; with SN12C renal it was 2.58 µM; with U251 CNS it was 2.74 µM.
Turning to `CN(C)c1ccc(O)c2c1C[C@H]1C[C@H]3[C@H](N(C)C)C(=O)C(C(N)=O)=C(O)[C@@]3(O)C(=O)C1=C2O`, the GI50 was 5.07 µM with DU-145 prostate; 3.36 µM with HS 578T breast; 5.18 µM in the experiment on MDA-MB-435; 8.58 µM in the experiment on NCI-H226 lung; 11.6 µM in the experiment with NCI/ADR-RES ovarian; 4.92 µM with OVCAR-3 ovarian. The GI50 with SN12C renal is 4.8 µM; with SNB-19 CNS, 5.93 µM; with U251 CNS, 4.5 µM. Also, the TGI in the experiment with DU-145 prostate is 73.6 µM; with HS 578T breast, 34.2 µM; in the experiment on MDA-MB-435, 33.2 µM; in the experiment with NCI-H226 lung it was 84.5 µM; with NCI/ADR-RES ovarian, more than 100 µM; in the experiment on OVCAR-3 ovarian it was 39.5 µM. Moreover, the TGI was more than 100 µM in the experiment on SN12C renal, more than 100 µM in the experiment on SNB-19 CNS and 57.1 µM in the experiment on U251 CNS.
In the case of `CC1/C(=N/Nc2ccc([N+](=O)[O-])cc2)CC2C3(C)CCC2(C(C)C(=O)O)C(=O)C13` (configuration not stated), the GI50 in the experiment with DU-145 prostate is more than 100 µM; with HS 578T breast, 3.55 µM; in the experiment on MDA-MB-435, 27.4 µM; in the experiment on NCI/ADR-RES ovarian, 5.7 µM; in the experiment with OVCAR-3 ovarian it was 1.72 µM; in the experiment with SN12C renal, 60.9 µM. Also, the GI50 was more than 100 µM in the experiment on SNB-19 CNS and 30.2 µM with U251 CNS. Further, the TGI in the experiment with DU-145 prostate, in the experiment with HS 578T breast, with MDA-MB-435, in the experiment with NCI/ADR-RES ovarian, in the experiment on OVCAR-3 ovarian and in the experiment on SN12C renal was more than 100 µM throughout. In addition, the TGI in the experiment with SNB-19 CNS and in the experiment on U251 CNS was more than 100 µM throughout.
On to `CSC1C(=O)c2ccccc2/C(=N/Nc2nc3ccccc3s2)C1C` (configuration not stated), for which the GI50 with DU-145 prostate was 9.59 µM; with HS 578T breast it was 7.26 µM; in the experiment on K-562 leukemia it was 1.7 µM; in the experiment with MDA-MB-435 it was 9.38 µM; in the experiment with NCI/ADR-RES ovarian, 9.94 µM; in the experiment with OVCAR-3 ovarian, 7.98 µM. Besides, the figures for the GI50 in the experiment with SN12C renal, in the experiment with SNB-19 CNS and in the experiment with U251 CNS were 7.26 µM, 19.9 µM and 7.66 µM, respectively. Also, the TGI in the experiment with DU-145 prostate amounted to 18.3 µM; in the experiment with HS 578T breast it was 27.9 µM; in the experiment with K-562 leukemia, 4.55 µM; in the experiment with MDA-MB-435, 19.8 µM; in the experiment on NCI/ADR-RES ovarian, 25.5 µM; in the experiment on OVCAR-3 ovarian, 17.6 µM. In addition, the TGI is 14.2 µM in the experiment with SN12C renal, more than 50 µM in the experiment on SNB-19 CNS and 15.6 µM with U251 CNS.
For the molecule `O=C(CN1C(=O)c2ccccc2C1=O)C(O)CN1C(=O)c2ccccc2C1=O` (configuration not stated), the TGI in the experiment with DU-145 prostate, in the experiment on HS 578T breast, with MDA-MB-435, with NCI-H226 lung, with NCI/ADR-RES ovarian and with OVCAR-3 ovarian was more than 100 µM throughout. The TGI is more than 100 µM in the experiment on SN12C renal, more than 100 µM in the experiment with SNB-19 CNS and 91.5 µM in the experiment with U251 CNS.
As for `O=C(/C=C/c1ccc(C(F)(F)F)cc1)c1ccc(Nc2nc(NCCO)nc(N3CCOCC3)n2)cc1`, the GI50 is 2.19 µM in the experiment with DU-145 prostate; 2.61 µM in the experiment with HS 578T breast; 2.33 µM in the experiment on K-562 leukemia; 2.23 µM with MDA-MB-435; 2.32 µM in the experiment with NCI-H226 lung; 2.87 µM in the experiment with NCI/ADR-RES ovarian. Moreover, the values for the GI50 in the experiment on OVCAR-3 ovarian, in the experiment with SN12C renal and in the experiment with U251 CNS were 1.96 µM, 2.22 µM and 1.63 µM, respectively. The TGI in the experiment on DU-145 prostate was 4.58 µM; with K-562 leukemia it was more than 100 µM; in the experiment on MDA-MB-435, 5.35 µM; with NCI-H226 lung, 5.89 µM; with NCI/ADR-RES ovarian it was 9.52 µM; in the experiment on OVCAR-3 ovarian, 3.79 µM. The TGI in the experiment with SN12C renal turned out to be 5.69 µM; in the experiment with U251 CNS it was 3.38 µM.
As to `COc1ccc2c(c1)OC(N)=C(C#N)C2c1ccc(F)cc1` (configuration not stated), the GI50 in the experiment on DU-145 prostate was 3.05 µM; in the experiment with HS 578T breast it was 3.84 µM; with MDA-MB-435, 0.22 µM; in the experiment on NCI-H226 lung, 20.7 µM; in the experiment on NCI/ADR-RES ovarian, 0.516 µM; in the experiment with OVCAR-3 ovarian, 0.829 µM. For the same molecule, the GI50 was 6.82 µM in the experiment with SN12C renal, 2.25 µM with SNB-19 CNS and 3.08 µM in the experiment with U251 CNS. In addition, the TGI in the experiment with DU-145 prostate is more than 100 µM; with HS 578T breast it was more than 100 µM; with MDA-MB-435, 0.601 µM; in the experiment with NCI-H226 lung, more than 100 µM; in the experiment on NCI/ADR-RES ovarian, more than 100 µM; in the experiment with OVCAR-3 ovarian, 14.2 µM. Further, the TGI with SN12C renal, with SNB-19 CNS and with U251 CNS was more than 100 µM in each case.
On to `CC1=C(C(=O)Nc2ccc(F)c(Cl)c2)C(c2cccc(Oc3ccccc3)c2)NC(=O)N1` (configuration not stated), for which the GI50 was 13.4 µM with DU-145 prostate; 12.2 µM with HS 578T breast; 18.8 µM with MDA-MB-435; 16.2 µM in the experiment with NCI-H226 lung; 19 µM in the experiment on NCI/ADR-RES ovarian; 20.7 µM in the experiment on OVCAR-3 ovarian. For the same molecule, the GI50 was 16.1 µM with SN12C renal, 16 µM in the experiment on SNB-19 CNS and 13.4 µM in the experiment with U251 CNS. Further, the TGI turned out to be 26.4 µM with DU-145 prostate; 32.9 µM with HS 578T breast; 39.8 µM in the experiment with MDA-MB-435; 37.4 µM in the experiment on NCI-H226 lung; 37.2 µM in the experiment on NCI/ADR-RES ovarian; 57.3 µM in the experiment on OVCAR-3 ovarian. Further, the TGI with SN12C renal came out at 32.8 µM; in the experiment with SNB-19 CNS it was 31.3 µM; in the experiment on U251 CNS, 26.2 µM.
